From ChEMBL document CHEMBL1177794, “Broad spectrum alkynyl inhibitors of T315I Bcr-Abl” (Bioorg Med Chem Lett, 2010)

Columns and labels:
[1] = biological target: Calcium/calmodulin-dependent protein kinase type 1G (Homo sapiens) (UniProt Q96NX5); experiment: Inhibition of CAMK1G at 10 uM; settings: values are per cent of control
[2] = biological target: Myosin light chain kinase, smooth muscle (Homo sapiens) (UniProt Q15746); experiment: Inhibition of MLCK at 10 uM; values are per cent of control
[3] = biological target: Mitogen-activated protein kinase kinase kinase kinase 2 (Homo sapiens) (UniProt Q12851); experiment: Inhibition of MAP4K2 at 10 uM; settings: values are per cent of control
[4] = test system: Tyrosine-protein kinase ABL1 (Homo sapiens), P00519 [T315I]; experiment: Inhibition of non phosphorylated ABL1 T315I mutant at 10 uM; settings: values are per cent of control
[5] = biological target: Vascular endothelial growth factor receptor 3 (Homo sapiens) (UniProt P35916); experiment: Inhibition of FLT4 at 10 uM; settings: values are per cent of control
[6] = test system: Hepatocyte growth factor receptor (Homo sapiens), P08581 [Y1235D]; experiment: Inhibition of MET Y1235D mutant at 10 uM
Chain of Hepatocyte growth factor receptor (Homo sapiens), P08581 [Y1235D] (P08581 whole entry Y1235D): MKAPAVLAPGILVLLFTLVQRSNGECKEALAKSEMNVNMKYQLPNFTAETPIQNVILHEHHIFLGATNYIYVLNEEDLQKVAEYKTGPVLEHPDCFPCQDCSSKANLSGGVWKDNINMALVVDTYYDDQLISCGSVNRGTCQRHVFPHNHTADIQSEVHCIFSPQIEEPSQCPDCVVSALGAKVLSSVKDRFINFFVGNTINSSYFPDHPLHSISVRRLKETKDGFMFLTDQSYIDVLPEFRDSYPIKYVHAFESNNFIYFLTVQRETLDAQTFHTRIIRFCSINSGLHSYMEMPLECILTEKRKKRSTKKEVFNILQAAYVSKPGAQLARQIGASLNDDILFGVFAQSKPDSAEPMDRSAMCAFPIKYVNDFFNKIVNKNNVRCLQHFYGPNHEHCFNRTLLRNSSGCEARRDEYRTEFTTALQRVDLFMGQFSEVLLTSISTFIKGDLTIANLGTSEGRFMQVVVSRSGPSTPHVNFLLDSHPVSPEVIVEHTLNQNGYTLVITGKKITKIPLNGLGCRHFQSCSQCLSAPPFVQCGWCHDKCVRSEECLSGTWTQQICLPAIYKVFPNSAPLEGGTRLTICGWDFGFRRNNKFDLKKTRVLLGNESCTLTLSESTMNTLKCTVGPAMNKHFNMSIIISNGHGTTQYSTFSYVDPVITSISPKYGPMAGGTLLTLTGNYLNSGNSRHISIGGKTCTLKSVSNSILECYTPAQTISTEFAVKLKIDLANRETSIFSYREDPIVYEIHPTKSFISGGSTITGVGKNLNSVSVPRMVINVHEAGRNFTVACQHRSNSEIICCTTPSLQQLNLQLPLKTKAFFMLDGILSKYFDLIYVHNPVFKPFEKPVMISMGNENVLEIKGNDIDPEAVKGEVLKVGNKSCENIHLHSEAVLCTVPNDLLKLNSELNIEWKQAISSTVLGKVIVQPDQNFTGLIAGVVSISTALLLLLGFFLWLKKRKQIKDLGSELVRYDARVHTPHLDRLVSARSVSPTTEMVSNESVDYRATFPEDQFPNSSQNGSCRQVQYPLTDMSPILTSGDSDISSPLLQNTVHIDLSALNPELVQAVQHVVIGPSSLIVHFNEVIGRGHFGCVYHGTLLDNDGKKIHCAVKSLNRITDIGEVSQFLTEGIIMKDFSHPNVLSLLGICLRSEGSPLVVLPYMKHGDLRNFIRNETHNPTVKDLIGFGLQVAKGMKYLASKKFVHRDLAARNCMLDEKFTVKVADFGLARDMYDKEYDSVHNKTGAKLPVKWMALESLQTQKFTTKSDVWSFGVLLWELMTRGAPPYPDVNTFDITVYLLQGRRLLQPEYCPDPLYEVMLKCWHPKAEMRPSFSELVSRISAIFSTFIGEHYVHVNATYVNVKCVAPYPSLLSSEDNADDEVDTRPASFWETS

[7] = biological target: Cyclin-dependent kinase 5 (Homo sapiens) (UniProt Q00535); experiment: Inhibition of CDK5 at 10 uM; values are per cent of control
[8] = biological target: Interleukin-1 receptor-associated kinase 3 (Homo sapiens) (UniProt Q9Y616); experiment: Inhibition of IRAK3 at 10 uM; settings: values are per cent of control
Chain of Interleukin-1 receptor-associated kinase 3 (Homo sapiens) (Q9Y616 whole entry): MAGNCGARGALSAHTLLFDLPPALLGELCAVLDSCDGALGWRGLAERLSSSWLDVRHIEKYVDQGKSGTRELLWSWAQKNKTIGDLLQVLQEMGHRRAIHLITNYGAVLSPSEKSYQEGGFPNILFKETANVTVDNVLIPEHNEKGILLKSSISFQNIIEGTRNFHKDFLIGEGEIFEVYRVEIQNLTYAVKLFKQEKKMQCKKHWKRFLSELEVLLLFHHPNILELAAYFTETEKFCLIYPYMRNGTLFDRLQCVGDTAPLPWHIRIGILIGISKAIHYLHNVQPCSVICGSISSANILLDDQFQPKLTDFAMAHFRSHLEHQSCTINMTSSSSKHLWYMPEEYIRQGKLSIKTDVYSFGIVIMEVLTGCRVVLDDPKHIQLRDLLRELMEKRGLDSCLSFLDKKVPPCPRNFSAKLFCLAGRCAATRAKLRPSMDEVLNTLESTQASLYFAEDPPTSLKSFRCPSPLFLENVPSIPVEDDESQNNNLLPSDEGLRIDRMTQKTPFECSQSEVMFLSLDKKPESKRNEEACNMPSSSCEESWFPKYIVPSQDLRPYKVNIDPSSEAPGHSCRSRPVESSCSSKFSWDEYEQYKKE

[9] = test system: Tyrosine-protein kinase ABL1 (Homo sapiens), P00519 [Q252H]; experiment: Inhibition of non phosphorylated ABL1 Q252H mutant at 10 uM; settings: values are per cent of control
[10] = biological target: Protein-tyrosine kinase 6 (Homo sapiens) (UniProt Q13882); experiment: Inhibition of BRK at 10 uM; settings: values are per cent of control
[11] = biological target: Casein kinase I isoform alpha (Homo sapiens) (UniProt P48729); experiment: Inhibition of CSNK1A1 at 10 uM; values are per cent of control
Chain of Casein kinase I isoform alpha (Homo sapiens) (P48729 2-337 limits assumed): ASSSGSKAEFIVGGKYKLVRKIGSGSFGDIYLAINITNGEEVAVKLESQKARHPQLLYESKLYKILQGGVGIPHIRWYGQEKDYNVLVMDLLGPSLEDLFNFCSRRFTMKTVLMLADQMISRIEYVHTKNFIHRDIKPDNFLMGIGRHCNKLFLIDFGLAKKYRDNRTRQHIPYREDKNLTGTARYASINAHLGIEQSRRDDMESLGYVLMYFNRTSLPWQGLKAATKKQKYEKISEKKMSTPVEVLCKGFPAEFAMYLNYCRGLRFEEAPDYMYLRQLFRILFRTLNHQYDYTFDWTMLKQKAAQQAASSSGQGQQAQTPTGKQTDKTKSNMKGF

[12] = biological target: Dual specificity mitogen-activated protein kinase kinase 5 (Homo sapiens) (UniProt Q13163); experiment: Inhibition of MEK5 at 10 uM; settings: values are per cent of control
[13] = biological target: Mitogen-activated protein kinase 13 (Homo sapiens) (UniProt O15264); experiment: Inhibition of p38delta at 10 uM; values are per cent of control
[14] = biological target: Protein kinase C epsilon type (Homo sapiens) (UniProt Q02156); experiment: Inhibition of PRKCE at 10 uM
[15] = biological target: Uncharacterized serine/threonine-protein kinase SBK3 (Homo sapiens) (UniProt P0C264); experiment: Inhibition of SgK110 at 10 uM
Chain of Uncharacterized serine/threonine-protein kinase SBK3 (Homo sapiens) (P0C264 whole entry): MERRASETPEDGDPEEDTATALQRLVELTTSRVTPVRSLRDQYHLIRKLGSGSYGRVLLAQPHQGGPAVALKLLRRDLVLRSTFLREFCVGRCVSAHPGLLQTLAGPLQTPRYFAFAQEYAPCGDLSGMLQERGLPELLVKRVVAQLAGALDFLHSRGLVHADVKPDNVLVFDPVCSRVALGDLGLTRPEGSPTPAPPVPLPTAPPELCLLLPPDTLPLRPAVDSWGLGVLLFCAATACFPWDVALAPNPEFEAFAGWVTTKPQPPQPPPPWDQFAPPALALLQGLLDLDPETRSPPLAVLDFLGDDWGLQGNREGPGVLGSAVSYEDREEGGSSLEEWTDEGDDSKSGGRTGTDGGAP

[16] = biological target: Serine/threonine-protein kinase LATS2 (Homo sapiens) (UniProt Q9NRM7); experiment: Inhibition of LATS2 at 10 uM; values are per cent of control
[17] = biological target: Death-associated protein kinase 3 (Homo sapiens) (UniProt O43293); experiment: Inhibition of DAPK3 at 10 uM; settings: values are per cent of control
[18] = biological target: Discoidin domain-containing receptor 2 (Homo sapiens) (UniProt Q16832); experiment: Inhibition of DDR2 at 10 uM; settings: values are per cent of control
[19] = biological target: Tyrosine-protein kinase receptor TYRO3 (Homo sapiens) (UniProt Q06418); experiment: Inhibition of TYRO3 at 10 uM; settings: values are per cent of control
[20] = biological target: Cyclin-dependent kinase 11B (Homo sapiens) (UniProt P21127); experiment: Inhibition of CDC2L1 at 10 uM; values are per cent of control
[21] = biological target: Wee1-like protein kinase (Homo sapiens) (UniProt P30291); experiment: Inhibition of WEE1 at 10 uM; settings: values are per cent of control
[22] = biological target: Mitogen-activated protein kinase 4 (Homo sapiens) (UniProt P31152); experiment: Inhibition of ERK4 at 10 uM; settings: values are per cent of control
Chain of Mitogen-activated protein kinase 4 (Homo sapiens) (P31152 whole entry): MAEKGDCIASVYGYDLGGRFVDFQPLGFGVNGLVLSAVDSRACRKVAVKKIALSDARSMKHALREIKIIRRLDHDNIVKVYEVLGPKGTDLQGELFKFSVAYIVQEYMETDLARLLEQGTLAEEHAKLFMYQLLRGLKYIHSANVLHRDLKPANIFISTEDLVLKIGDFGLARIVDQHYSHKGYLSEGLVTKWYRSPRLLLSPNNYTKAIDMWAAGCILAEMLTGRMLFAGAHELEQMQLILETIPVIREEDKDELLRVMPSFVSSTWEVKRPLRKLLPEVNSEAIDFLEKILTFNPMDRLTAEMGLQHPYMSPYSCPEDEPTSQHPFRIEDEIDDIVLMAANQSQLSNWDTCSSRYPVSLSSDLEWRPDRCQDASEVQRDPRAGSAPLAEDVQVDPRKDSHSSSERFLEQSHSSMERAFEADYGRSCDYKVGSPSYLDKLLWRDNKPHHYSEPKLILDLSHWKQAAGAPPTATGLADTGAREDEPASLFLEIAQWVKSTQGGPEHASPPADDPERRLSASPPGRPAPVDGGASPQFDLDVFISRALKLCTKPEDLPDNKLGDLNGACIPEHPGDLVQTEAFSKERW

[23] = test system: Receptor-type tyrosine-protein kinase FLT3 (Homo sapiens), P36888 [R834Q]; experiment: Inhibition of FLT3 R834Q mutant at 10 uM; settings: values are per cent of control
[24] = biological target: NUAK family SNF1-like kinase 1 (Homo sapiens) (UniProt O60285); experiment: Inhibition of ARK5 at 10 uM; values are per cent of control
Chain of NUAK family SNF1-like kinase 1 (Homo sapiens) (O60285 whole entry): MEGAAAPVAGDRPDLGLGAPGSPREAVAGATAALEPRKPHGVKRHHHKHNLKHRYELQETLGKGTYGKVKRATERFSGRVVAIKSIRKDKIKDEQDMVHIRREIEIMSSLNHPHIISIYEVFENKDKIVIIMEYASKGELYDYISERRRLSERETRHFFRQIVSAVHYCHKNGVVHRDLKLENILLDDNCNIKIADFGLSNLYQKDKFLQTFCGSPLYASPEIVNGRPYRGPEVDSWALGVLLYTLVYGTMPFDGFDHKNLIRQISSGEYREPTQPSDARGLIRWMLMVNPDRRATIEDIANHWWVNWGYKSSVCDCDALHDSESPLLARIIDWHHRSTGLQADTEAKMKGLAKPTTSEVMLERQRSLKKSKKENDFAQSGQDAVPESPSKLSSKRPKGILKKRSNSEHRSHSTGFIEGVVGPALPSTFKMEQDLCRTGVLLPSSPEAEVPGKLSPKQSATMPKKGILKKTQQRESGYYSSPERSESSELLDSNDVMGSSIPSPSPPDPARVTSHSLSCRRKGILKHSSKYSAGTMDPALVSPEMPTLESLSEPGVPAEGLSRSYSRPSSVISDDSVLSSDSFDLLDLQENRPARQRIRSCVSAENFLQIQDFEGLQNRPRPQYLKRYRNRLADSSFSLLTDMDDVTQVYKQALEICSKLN

[25] = biological target: Serine/threonine-protein kinase D2 (Homo sapiens) (UniProt Q9BZL6); experiment: Inhibition of PRKD2 at 10 uM
[26] = biological target: Dual specificity testis-specific protein kinase 1 (Homo sapiens) (UniProt Q15569); experiment: Inhibition of TESK1 at 10 uM
[27] = biological target: Serine/threonine-protein kinase Chk1 (Homo sapiens) (UniProt O14757); experiment: Inhibition of CHEK1 at 10 uM; values are per cent of control
[28] = biological target: Casein kinase I isoform epsilon (Homo sapiens) (UniProt P49674); experiment: Inhibition of CSNK1E at 10 uM; values are per cent of control
[29] = biological target: Ephrin type-A receptor 6 (Homo sapiens) (UniProt Q9UF33); experiment: Inhibition of EPHA6 at 10 uM; settings: values are per cent of control
[30] = biological target: Casein kinase I isoform gamma-3 (Homo sapiens) (UniProt Q9Y6M4); experiment: Inhibition of CSNK1G3 at 10 uM; values are per cent of control
Chain of Casein kinase I isoform gamma-3 (Homo sapiens) (Q9Y6M4 whole entry, looked up, canonical isoform): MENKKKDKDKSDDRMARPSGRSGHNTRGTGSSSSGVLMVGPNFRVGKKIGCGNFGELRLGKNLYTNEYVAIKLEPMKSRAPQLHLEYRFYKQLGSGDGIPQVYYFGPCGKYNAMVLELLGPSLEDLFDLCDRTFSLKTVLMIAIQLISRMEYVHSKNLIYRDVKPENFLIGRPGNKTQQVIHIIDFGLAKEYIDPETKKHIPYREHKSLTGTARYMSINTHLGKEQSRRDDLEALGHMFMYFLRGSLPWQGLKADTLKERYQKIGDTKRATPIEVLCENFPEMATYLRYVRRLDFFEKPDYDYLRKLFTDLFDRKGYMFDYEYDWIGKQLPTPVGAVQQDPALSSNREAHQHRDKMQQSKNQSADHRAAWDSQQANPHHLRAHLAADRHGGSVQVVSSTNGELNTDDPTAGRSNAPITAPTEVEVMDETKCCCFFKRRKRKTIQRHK

[31] = biological target: Receptor-interacting serine/threonine-protein kinase 2 (Homo sapiens) (UniProt O43353); experiment: Inhibition of RIPK2 at 10 uM; settings: values are per cent of control
[32] = biological target: Serine/threonine-protein kinase 17A (Homo sapiens) (UniProt Q9UEE5); experiment: Inhibition of DRAK1 at 10 uM; values are per cent of control
[33] = test system: Proto-oncogene tyrosine-protein kinase receptor Ret (Homo sapiens), P07949 [M918T]; experiment: Inhibition of RET M918T mutant at 10 uM; values are per cent of control
[34] = biological target: Vascular endothelial growth factor receptor 1 (Homo sapiens) (UniProt P17948); experiment: Inhibition of FLT1 at 10 uM; values are per cent of control
[35] = biological target: Homeodomain-interacting protein kinase 3 (Homo sapiens) (UniProt Q9H422); experiment: Inhibition of HIPK3 at 10 uM; settings: values are per cent of control
[36] = biological target: Serine/threonine-protein kinase PLK1 (Homo sapiens) (UniProt P53350); experiment: Inhibition of PLK1 at 10 uM
Chain of Serine/threonine-protein kinase PLK1 (Homo sapiens) (P53350 whole entry): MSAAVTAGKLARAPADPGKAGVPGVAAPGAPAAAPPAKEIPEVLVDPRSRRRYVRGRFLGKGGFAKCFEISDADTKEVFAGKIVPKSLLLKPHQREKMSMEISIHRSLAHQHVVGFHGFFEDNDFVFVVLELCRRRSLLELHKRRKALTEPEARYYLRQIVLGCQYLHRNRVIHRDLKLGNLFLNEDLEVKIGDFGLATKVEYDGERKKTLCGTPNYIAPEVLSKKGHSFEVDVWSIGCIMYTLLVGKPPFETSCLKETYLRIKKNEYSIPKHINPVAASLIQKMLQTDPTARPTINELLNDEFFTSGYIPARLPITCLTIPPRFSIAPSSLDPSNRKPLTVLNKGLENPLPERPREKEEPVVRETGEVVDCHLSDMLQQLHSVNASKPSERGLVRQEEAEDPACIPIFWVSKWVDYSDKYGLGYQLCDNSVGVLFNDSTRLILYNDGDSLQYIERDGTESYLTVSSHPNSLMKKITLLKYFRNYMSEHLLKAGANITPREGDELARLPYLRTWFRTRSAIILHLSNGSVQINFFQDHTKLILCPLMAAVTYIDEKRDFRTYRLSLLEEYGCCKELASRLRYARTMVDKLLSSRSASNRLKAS

[37] = biological target: Mitogen-activated protein kinase 12 (Homo sapiens) (UniProt P53778); experiment: Inhibition of p38-gamma at 10 uM; values are per cent of control
[38] = biological target: Mitogen-activated protein kinase 6 (Homo sapiens) (UniProt Q16659); experiment: Inhibition of ERK3 at 10 uM; settings: values are per cent of control
[39] = biological target: Ephrin type-A receptor 5 (Homo sapiens) (UniProt P54756); experiment: Inhibition of EPHA5 at 10 uM; values are per cent of control
[40] = biological target: Focal adhesion kinase 1 (Homo sapiens) (UniProt Q05397); experiment: Inhibition of FAK at 10 uM; settings: values are per cent of control

Structure (SMILES) | residual binding, % of control [1] [%] | % of control [2] [%] | residual binding, % of control [3] [%] | residual binding, % of control [4] [%] | residual binding, % of control [5] [%] | inhibition [6] [%] | level, % of control [7] [%] | residual binding, % of control [8] [%] | residual binding, % of control [9] [%] | residual binding, % of control [10] [%] | level, % of control [11] [%] | residual binding, % of control [12] [%] | % of control [13] [%] | inhibition [14] [%] | inhibition [15] [%] | level, % of control [16] [%] | residual binding, % of control [17] [%] | residual binding, % of control [18] [%] | residual binding, % of control [19] [%] | level, % of control [20] [%] | other results
CCN1CCN(Cc2ccc(NC(=O)c3ccc(C)c(C#Cc4cccnc4)c3)cc2C(F)(F)F)CC1 | 100 | 60 | 0 | 2.8 | 0 | 61 | 10 | 100 | 6.4 | 2.8 | 75 | 0.4 | 2.5 | 54 | 100 | 7.6 | 100 | 1 | 100 | 2.5 | residual binding, % of control [21]: 100%; residual binding, % of control [22]: 100%; residual binding, % of control [23]: 4.2%; level, % of control [24]: 100%; inhibition [25]: 56%; inhibition [26]: 60%; level, % of control [27]: 80%; level, % of control [28]: 48%; residual binding, % of control [29]: 0%; level, % of control [30]: 85%; residual binding, % of control [31]: 0.45%; % of control [32]: 87%; level, % of control [33]: 0%; level, % of control [34]: 0.5%; residual binding, % of control [35]: 18%; inhibition [36]: 58%; % of control [37]: 2.7%; residual binding, % of control [38]: 100%; level, % of control [39]: 1.2%; residual binding, % of control [40]: 75%
CCN1CCN(Cc2ccc(NC(=O)c3ccc(C)c(C#Cc4cnc5[nH]ccc5c4)c3)cc2C(F)(F)F)CC1 | 92 | 18 | 0 | 2.4 | 0.1 | 4.9 | 24 | 100 | 1.6 | 2.5 | 89 | 0.4 | 2.6 | 78 | 42 | 7 | 96 | 2.8 | 38 | 0 | residual binding, % of control [21]: 100%; residual binding, % of control [22]: 26%; residual binding, % of control [23]: 7.2%; level, % of control [24]: 95%; inhibition [25]: 13%; inhibition [26]: 2.4%; level, % of control [27]: 88%; level, % of control [28]: 26%; residual binding, % of control [29]: 0.15%; level, % of control [30]: 22%; residual binding, % of control [31]: 0.3%; % of control [32]: 24%; level, % of control [33]: 0%; level, % of control [34]: 0.8%; residual binding, % of control [35]: 25%; inhibition [36]: 56%; % of control [37]: 5.7%; residual binding, % of control [38]: 100%; level, % of control [39]: 0.85%; residual binding, % of control [40]: 59%
